Columns and labels:
MAP kinase = experiment: Activation (phosphorylation) of MAP kinase by Western immunoblotting in cultured cerebral cortex nerve cells; format: cell-based, rat; set-up: pMAPK/MAPK: unit not given here; conditions: for Ratio of pMAPK to MAPK: Test Example 6, relative to control (0 μg/mL = 1.0)
Protocol: With regard to the compound 1 ((E)-2-(dimethylamino)-ethyl dec-2-enoate), activation of MAP kinase was measured as follows by a Western immunoblotting.
Nerve cells were dispersed from cerebral cortex of a fetal rat of 17 days age and said nerve cells were cultured for one day in a Dulbecco-modified Eagle medium (DMEM) containing 5% fetal bovine serum. The culture medium was exchanged with a serum-free medium (B27 supplement-added Neurobasal; Invitrogen) and the nerve cells were cultured at the density of 20,000 to 40,000 cells per cm^2 in a culture dish coated with polyornithine.
After three days, the compound 1 was added and the culture was continued for 30 minutes. After that, the cells were recovered on ice using a solution containing a phosphatase inhibitor where Tris-HCl buffer was a base. Protein concentration of the resulting cell extract was quantified using a BCA Protein Assay Kit (Takara Bio KK) and a certine amount of protein (3 μg for the measurement of MAP kinase and 5 μg for the measurement of phosphorylated MAP kinase) was subjected to polyacrylamide gel electrophoresis. The protein was transcribed from the gel after the electrophoresis to a PVDF membrane and a Western immunoblotting was carried out using each of an anti-MAP kinase antibody (Cell Signaling Technology) and an anti-phosphorylated MAP kinase antibody (Cell Signaling Technology) of the primary antibody.
After that, the reaction with an alkaline phosphatase-labeled anti-rabbit IgG antibody (Promega) of the secondary antibody was carried out so that the enzymatic activity was colorized whereupon the MAP kinase and the phosphorylated MAP kinase were measured.
Incidentally, the compound 1 was adjusted to the concentrations of 10 μg/ml, 30 μg/ml, 100 μg/ml and 300 μg/ml by dissolving in 0.1% DMSO. With regard to the control, 0.1% DMSO was added.
Intensity of the concentration of the above-obtained band of the gel subjected to electrophoresis was calculated and quantified using Image J (K. K. Bioarts). The numerical value for the MAP kinase using the compound 1 was divided by the numerical value for the MAP kinase of the control and, further, the numerical value for the phosphorylated MAP kinase using the compound 1 was divided by the numerical value for the phosphorylated MAP kinase of the control whereupon the ratio of the MAP kinase using the compound 1 to the control and the ratio of the phosphorylated kinase using the compound 1 to the control were determined.
After that, the resulting ratio of the phosphorylated MAP kinase to the control was divided by the resulting ratio of the MAP kinase to the control to determine the ratio of the phosphorylated MAP kinase to the MAP kinase (cf. Table 5). In Table 5, “MAPK” means a MAP kinase and “pMAPK” means a phosphorylated MAP kinase. “10”, “30”, “100” and “300” in Table 5 show the examples where 10 μg/ml, 30 μg/ml, 100 μg/ml and 300 μg/ml of the compound 1 were added.
MAP kinase and phosphorylated MAP kinase were measured for the compound 6 ((E)-2-(diethylamino)ethyl dec-2-enoate) and the compound 13 ((E)-2-(2-(diethylamino)ethoxy)ethyl dec-2-enoate) by the same method as in Test Example 1.
Each of the compounds 6 and 13 was dissolved in 0.1% DMSO to adjust to the concentration of 250 μg/ml. With regard to the control, 0.1% DMSO was added. With regard to the concentration of the resulting band of the gel subjected to electrophoresis, its intensity was calculated by the same method as in Test Example 1 using Image J (K. K. Bioarts) and the ratio of the phosphorylated MAP kinase to the control was divided by the resulting ratio of the MAP kinase to the control whereupon the ratio of the phosphorylated MAP kinase to the MAP kinase was determined (cf. Table 6).
With regard to the compound of the present invention, its activation for MAP kinase was measured by the same manner as in Test Example 1.
Each compound was dissolved in 0.1% DMSO to adjust to the concentrations of 30 μg/ml, 60 μg/ml, 125 μg/ml and 250 μg/ml. […]

PC12 cells = experiment: Evaluation using PC12 cells; immunostaining method for MAPK phosphorylation; format: cell-based; conditions: 30 minutes
Protocol: PC12 cells were stimulated using the compound of the present invention and the phosphorylation of MAPK was evaluated by means of immunostaining of the cells. The specific operation procedure is as follows.
A cover glass was placed on a 24-well plate followed by coating with poly-L-lysine. PC12 cells were seeded in a cell density of 50,000 cells/well. (The amount of the medium was 400 μL) On the first day after seeding the cells, the medium was exchanged to DMEM containing 1% fetal bovine serum (FBS) and 0.06% L-glutamine.
The compound which was previously diluted with DMSO was dissolved in 100 μl of medium. After 12 to 16 hours from the medium exchange, 100 μl out of 400 μl of the medium was removed from each well and, in place of that, 100 μl of a medium containing the compound was added.
After 30 minutes from the addition, fixation was conducted using 4% paraformaldehyde (PFA) for 10 minutes. The fixed cells were washed with a Tris-buffered saline (TBS) and a TBS containing 0.3% Triton X was added thereto followed by incubating at 37° C. for 30 minutes. This was washed with a TBS and blocked with a TBS containing 3% skim milk for 30 minutes (at room temperature).
This was washed with a TBS for one time and a primary antibody (anti-phospho-p42/44 MAPK antibody; cell signalings; #9102 being diluted with TBS to an extent of 1,000-fold) was added thereto followed by subjecting to the reaction at 4° C. for one night. The primary antibody was removed and washed with a TBS for three times. After that, the secondary antibody (Alexa 488 goat anti-rabbit antibody; Invitrogen: being diluted to an extent of 1,000-fold using a TBS containing 1% Block Ace) was added thereto and the reaction was conducted at room temperature for 3 hours. The secondary antibody was removed and, after washing with a TBS, fixation was conducted with 4% PFA for 1 hour.
This was washed with a TBS, Hoechst (diluted with a TBS to an extent of 2000-fold) was added thereto and nuclear staining was conducted. This was washed and mounted.
Taking the photographic pictures and counting the positive cells were conducted as follows. An all-in-one microscope (manufactured by Keyence) was used, exposing time for pMAPK (green) was made 1/2.8 s, the place was appropriately decided in a Hoechst-stained image and the pictures were taken. Four pictures per one glass sheet were taken.
Photoshop (Adobe) was used and the cells having above a certain luminance were judged to be positive. All cells were labeled using Hoechst 33342 manufactured by Invitrogen and the rate of pMAPK-positive cells in Hoechst-positive cells was calculated. (cf. Table 7)

[1] = tested on: male mice injected with corticosterone; experiment: Tail suspension test in mice administered corticosterone; format: in vivo; conditions: after two weeks, control 141.15 seconds
Protocol: Corticosterone suspended in oil was hypodermically injected to male mice of seven weeks age (n=3 to 5) in a dose of […] every day for three weeks. At the same time, the compound of the present invention dissolved in PBS or in a PBS solvent containing DMSO, etc. was orally administered every day for three weeks. After one, two and three week(s), the suppressive effect for depressive symptom was evaluated by a tail suspension test in the same manner as in the above Test Example 7. Incidentally, the test for significance was conducted by a Student's t-test.

[2] = 10 μg/ml, 30 minutes, fetal rat cerebral cortex nerve cells
[3] = 30 μg/ml, 30 minutes, fetal rat cerebral cortex nerve cells
[4] = 100 μg/ml, 30 minutes, fetal rat cerebral cortex nerve cells

CCCCCCC/C=C/C(=O)OCCN(C)C [Compound 1, (E)-2-(dimethylamino)ethyl dec-2-enoate]
pMAPK/MAPK (MAP kinase; [2]): 674
pMAPK/MAPK/Control (MAP kinase; [2]): 1.38
pMAPK/MAPK (MAP kinase; [3]): 1071
pMAPK/MAPK/Control (MAP kinase; [3]): 2.20
pMAPK/MAPK (MAP kinase; [4]): 1043
pMAPK/MAPK/Control (MAP kinase; [4]): 2.14
pMAPK/MAPK (MAP kinase; 300 μg/ml, 30 minutes, fetal rat cerebral cortex nerve cells): 2234
Rate of pMAPK-positive cells (%) (PC12 cells; 62.5 μg/mL): 4%
Rate of pMAPK-positive cells (%) (PC12 cells; 125 μg/mL): 12%
Rate of pMAPK-positive cells (%) (PC12 cells; 250 μg/mL): 36%
Rate of pMAPK-positive cells (%) (PC12 cells; 500 μg/mL): 32%

CCCCCCC/C=C/C(=O)OCCN(CC)CC [Compound 6, (E)-2-(diethylamino)ethyl dec-2-enoate]
pMAPK/MAPK/Control (MAP kinase; 250 μg/ml, Test Example 2, control = 1.00): 1.72
Rate of pMAPK-positive cells (%) (PC12 cells; 62.5 μg/mL): 31%
Rate of pMAPK-positive cells (%) (PC12 cells; 125 μg/mL): 51%
immobility time (tail suspension test) ([1]; 300 μg/kg orally every day): 60.37 s

CCCCCCC/C=C/C(=O)NCCN(C)C [Compound 36, (E)-N-2-(dimethylamino)ethyl dec-2-enamide]
Ratio of pMAPK to MAPK (MAP kinase; 30 μg/mL): 1.6
Ratio of pMAPK to MAPK (MAP kinase; 60 μg/mL): 5.1
Ratio of pMAPK to MAPK (MAP kinase; 125 μg/mL): 0.5
Rate of pMAPK-positive cells (%) (PC12 cells; 62.5 μg/mL): 12%
Rate of pMAPK-positive cells (%) (PC12 cells; 125 μg/mL): 70%
Rate of pMAPK-positive cells (%) (PC12 cells; 250 μg/mL): 89%
Rate of pMAPK-positive cells (%) (PC12 cells; 500 μg/mL): 43%
immobility time (tail suspension test) ([1]; 300 μg/kg orally every day): 41.63 s

CCCCCCC/C=C/C(=O)NCCN(CC)CC [Compound 37, (E)-N-2-(diethylamino)ethyl dec-2-enamide]
Ratio of pMAPK to MAPK (MAP kinase; 60 μg/mL): 3.4
Ratio of pMAPK to MAPK (MAP kinase; 125 μg/mL): 3.4
Ratio of pMAPK to MAPK (MAP kinase; 250 μg/mL): 4.9
Rate of pMAPK-positive cells (%) (PC12 cells; 62.5 μg/mL): 6%
Rate of pMAPK-positive cells (%) (PC12 cells; 125 μg/mL): 43%
Rate of pMAPK-positive cells (%) (PC12 cells; 250 μg/mL): 48%
Rate of pMAPK-positive cells (%) (PC12 cells; 500 μg/mL): 0%

CCCCCCC/C=C/C(=O)SCCN(C)C [Compound 55, (E)-S-2-(dimethylamino)ethyl dec-2-enethioate]
Ratio of pMAPK to MAPK (MAP kinase; 30 μg/mL): 4.6
Ratio of pMAPK to MAPK (MAP kinase; 60 μg/mL): 8.6
Ratio of pMAPK to MAPK (MAP kinase; 125 μg/mL): 16.0
Rate of pMAPK-positive cells (%) (PC12 cells; 62.5 μg/mL): 20%
Rate of pMAPK-positive cells (%) (PC12 cells; 125 μg/mL): 46%
Rate of pMAPK-positive cells (%) (PC12 cells; 250 μg/mL): 41%
Rate of pMAPK-positive cells (%) (PC12 cells; 500 μg/mL): 10%
immobility time (tail suspension test) ([1]; 1,500 μg/kg orally every day): 86.71 s

Source: US8987486B2, “Trans-2-decenoic acid derivative and pharmaceutical agent containing the same” (Nagoya Industrial Science Research Institute, priority 2010, dated 2015)
